{
  "source": "ChEMBL document CHEMBL1158277",
  "about": "“N -(Indol-3-ylethyl)-2-hydroxy-3-methylpentanamide, a Novel Indole Derivative from Xenorhabdus nematophilus” (J Nat Prod, 1996)",
  "system": "Bacillus subtilis",
  "assay": "Antibacterial activity against Bacillus subtilis at 100 ug/mL",
  "type": "functional, organism-based",
  "note": "Calls of active or inactive are those of the source. No cut-off for these calls is given here.",
  "data": [
    {"smiles": "CC[C@H](C)[C@@H](O)C(=O)NCCc1c[nH]c2ccccc12", "values": [
      {"measurement": "Activity", "value": "inactive"}
    ]}
  ]
}
